Assay results published in patent US9615576B2, “Pesticidal compositions and processes related thereto” (Dow AgroSciences LLC, priority 2011, dated 2017).

Assays:
[1] = test system: Corn Earworm (CEW) (Helicoverpa zea); assay: Bioassays on Corn Earworm (CEW), 128-well diet tray assay; format: in vivo; settings: 168 h, 50 μg/cm^2 test compound on artificial diet, second instar larvae, 25° C., five to seven days, average of eight wells, read-out: CEW Rating (% mortality)
Procedure, shortened: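 Second-instar larvae (one to five per well) placed on artificial diet treated with 50 μg/cm^2 compound in 90:10 acetone-water, dried; eight wells per compound. Held at 25° C, 14:10 light-dark, five to seven days; percent mortality averaged over wells.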

[2] = test system: Beet Armyworm (BAW) (Spodoptera exigua); assay: Bioassays on Beet Armyworm (BAW), 128-well diet tray assay; format: in vivo; settings: 168 h, 50 μg/cm^2 test compound on artificial diet, second instar larvae, 25° C., five to seven days, average of eight wells, read-out: BAW Rating (% mortality)
Procedure, shortened: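 Second-instar larvae (1–5 per well) on artificial diet surface-treated with 50 μg/cm^2 compound applied in 90:10 acetone-water and dried; eight wells per compound. Held 5–7 days at 25° C., 14:10 light-dark. Percent mortality scored per well and averaged over eight wells.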

Compound | melting point [°C] | mortality at 50 µg/cm2 [1] [%] | mortality at 50 µg/cm2 [2] [%]
NC(=O)c1ccc(/C=C/C(c2cc(Cl)cc(Cl)c2)C(F)(F)F)cc1 (stereo not drawn) [AC2] | 110 to 112 |  | 
COc1c(Cl)cc(C(/C=C/c2ccc(-n3cncn3)c(C#N)c2)C(F)(F)F)cc1Cl (stereo not drawn) [DC34] |  | 50 to 100 | 50 to 100
N#Cc1cc(/C=C/C(c2cc(Cl)c(F)c(Cl)c2)C(F)(F)F)ccc1-n1cncn1 (stereo not drawn) [DC35] |  | 50 to 100 | 50 to 100
Cc1ncn(-c2ccc(/C=C/C(c3cc(Cl)cc(Cl)c3)C(F)(F)F)cc2C#N)n1 (stereo not drawn) [DC36] |  | 0 | 0
N#Cc1cc(/C=C/C(c2cc(Cl)cc(Cl)c2)C(F)(F)F)ccc1-n1cnc([N+](=O)[O-])n1 (stereo not drawn) [DC37] |  | 50 to 100 | 50 to 100
N#Cc1cc(/C=C/C(c2cc(Cl)cc(Cl)c2)C(F)(F)F)ccc1-n1cnc(N)n1 (stereo not drawn) [DC38] |  | 50 to 100 | 50 to 100
CC(=O)Nc1ncn(-c2ccc(/C=C/C(c3cc(Cl)cc(Cl)c3)C(F)(F)F)cc2C#N)n1 (stereo not drawn) [DC39] |  | 50 to 100 | 50 to 100
N#Cc1cc(/C=C/C(c2cc(Cl)c(Cl)c(Cl)c2)C(F)(F)F)ccc1-n1cnc([N+](=O)[O-])n1 (stereo not drawn) [DC40, (E)-2-(3-nitro-1H-1,2,4-triazol-1-yl)-5-(4,4,4-trifluoro-3-(3,4,5-trichlorophenyl)but-1-en-1-yl)benzonitrile] |  | 50 to 100 | 50 to 100
N#Cc1cc(/C=C/C(c2cc(Cl)c(Cl)c(Cl)c2)C(F)(F)F)ccc1-n1cnc(N)n1 (stereo not drawn) [DC41, (E)-2-(3-amino-1H-1,2,4-triazol-1-yl)-5-(4,4,4-trifluoro-3-(3,4,5-trichlorophenyl)but-1-en-1-yl)benzonitrile] |  | 50 to 100 | 50 to 100
N#Cc1cc(/C=C/C(c2cc(Cl)c(Cl)c(Cl)c2)C(F)(F)F)ccc1-n1cnc(N(C(=O)C2CC2)C(=O)C2CC2)n1 (stereo not drawn) [DC42, (E)-N-(1-(2-cyano-4-(4,4,4-trifluoro-3-(3,4,5-trichlorophenyl)but-1-en-1-yl)phenyl)-1H-1,2,4-triazol-3-yl)-N-(cyclopropanecarbonyl)cyclopropanecarboxamide] |  | 50 to 100 | 50 to 100
N#Cc1cc(/C=C/C(c2cc(Cl)c(Cl)c(Cl)c2)C(F)(F)F)ccc1-n1cnc(NC(=O)C2CC2)n1 (stereo not drawn) [DC43, (E)-N-(1-(2-cyano-4-(4,4,4-trifluoro-3-(3,4,5-trichlorophenyl)but-1-en-1-yl)phenyl)-1H-1,2,4-triazol-3-yl)cyclopropanecarboxamide] |  | 50 to 100 | 50 to 100
Cc1cc(/C=C/C(c2cc(Cl)cc(Cl)c2)C(F)(F)F)cc(C#N)c1-n1cncn1 (stereo not drawn) [DC44] |  | 50 to 100 | 50 to 100
Cc1cc(/C=C/C(c2cc(Cl)c(Cl)c(Cl)c2)C(F)(F)F)cc(C#N)c1-n1cncn1 (stereo not drawn) [DC45] |  | 50 to 100 | 50 to 100
N#Cc1cc(/C=C\C(c2cc(Cl)c(F)c(Cl)c2)C(F)(F)F)ccc1-n1cncn1 (stereo not drawn) [DC46] |  | 50 to 100 | 50 to 100
FC(F)(F)C(/C=C/c1ccc(-n2cncn2)c(Br)c1)c1cc(Cl)cc(Cl)c1 (stereo not drawn) [DC47] |  | 50 to 100 | 50 to 100
Fc1cc(/C=C/C(c2cc(Cl)cc(Cl)c2)C(F)(F)F)ccc1-n1cncn1 (stereo not drawn) [DC48] |  | 50 to 100 | 50 to 100
FC(F)(F)C(/C=C/c1ccc(-n2cncn2)c(Cl)c1)c1cc(Cl)c(Cl)c(Cl)c1 (stereo not drawn) [DC49] |  | 50 to 100 | 50 to 100
FC(F)(F)C(/C=C/c1ccc(-n2cncn2)c(Cl)c1)c1cc(Cl)cc(Cl)c1 (stereo not drawn) [DC50] |  | 50 to 100 | 50 to 100
FC(F)(F)c1cc(/C=C/C(c2cc(Cl)cc(Cl)c2)C(F)(F)F)ccc1-n1cncn1 (stereo not drawn) [DC51] |  | 50 to 100 | 50 to 100

Compound | melting point [°C] | mortality at 50 µg/cm2 [1] [%] | mortality at 50 µg/cm2 [2] [%]
O=Cc1cc(/C=C/C(c2cc(Cl)cc(Cl)c2)C(F)(F)F)ccc1-n1cncn1 (stereo not drawn) [DC52, (E)-5-(3-(3,5-dichlorophenyl)-4,4,4-trifluorobut-1-en-1-yl)-2-(1H-1,2,4-triazol-1-yl)benzaldehyde] |  | 0 | 0
OCc1cc(/C=C/C(c2cc(Cl)cc(Cl)c2)C(F)(F)F)ccc1-n1cncn1 (stereo not drawn) [DC53] |  | 50 to 100 | 0
O=[N+]([O-])c1cc(/C=C/C(c2cc(Cl)cc(Cl)c2)C(F)(F)F)ccc1-n1cncn1 (stereo not drawn) [DC54] |  | 0 | 0
Nc1cc(/C=C/C(c2cc(Cl)cc(Cl)c2)C(F)(F)F)ccc1-n1cncn1 (stereo not drawn) [DC55] |  | 0 | 0
CC(=O)Nc1cc(/C=C/C(c2cc(Cl)cc(Cl)c2)C(F)(F)F)ccc1-n1cncn1 (stereo not drawn) [DC56] |  | 0 | 0
CNc1cc(/C=C/C(c2cc(Cl)cc(Cl)c2)C(F)(F)F)ccc1-n1cncn1 (stereo not drawn) [DC57, (E)-5-(3-(3,5-dichlorophenyl)-4,4,4-trifluorobut-1-en-1-yl)-N-methyl-2-(1H-1,2,4-triazol-1-yl)aniline] |  | 50 to 100 | 50 to 100
NC(=O)c1cc(/C=C/C(c2cc(Cl)cc(Cl)c2)C(F)(F)F)ccc1-n1cncn1 (stereo not drawn) [DC58] |  | 0 | 0
N/C(=N\O)c1cc(/C=C/C(c2cc(Cl)cc(Cl)c2)C(F)(F)F)ccc1-n1cncn1 (stereo not drawn) [DC59, (Z)-5-((E)-3-(3,5-dichlorophenyl)-4,4,4-trifluorobut-1-en-1-yl)-N′-hydroxy-2-(1H-1,2,4-triazol-1-yl)benzimidamide] |  | 0 | 0
CCOC(=O)c1cc(/C=C/C(c2cc(Cl)cc(Cl)c2)C(F)(F)F)ccc1-n1cncn1 (stereo not drawn) [DC60] |  | 50 to 100 | 50 to 100
O=C(O)c1cc(/C=C/C(c2cc(Cl)cc(Cl)c2)C(F)(F)F)ccc1-n1cncn1 (stereo not drawn) [DC61, (E)-5-(3-(3,5-dichlorophenyl)-4,4,4-trifluorobut-1-en-1-yl)-2-(1H-1,2,4-triazol-1-yl)benzoic acid] |  | 0 | 0
Cc1cc(/C=C/C(c2cc(Cl)cc(Cl)c2)C(F)(F)F)ccc1-n1cncn1 (stereo not drawn) [DC62] |  | 50 to 100 | 50 to 100
Cc1cc(/C=C/C(c2cc(Cl)c(Cl)c(Cl)c2)C(F)(F)F)ccc1-n1cncn1 (stereo not drawn) [DC63] |  | 50 to 100 | 50 to 100
FC(F)(F)C(/C=C/c1ccc(-n2cncn2)c(-c2ccncc2)c1)c1cc(Cl)cc(Cl)c1 (stereo not drawn) [DC64] |  | 0 | 0
Cc1cc(-n2cncn2)ccc1/C=C/C(c1cc(Cl)cc(Cl)c1)C(F)(F)F (stereo not drawn) [DC65] |  | 50 to 100 | 0
FC(F)(F)C(/C=C/c1ccc(-n2cncn2)cc1Cl)c1cc(Cl)c(Cl)c(Cl)c1 (stereo not drawn) [DC66] |  | 50 to 100 | 50 to 100
FC(F)(F)C(/C=C/c1ccc(-n2cncn2)cc1Cl)c1cc(Cl)cc(Cl)c1 (stereo not drawn) [DC67] |  | 50 to 100 | 50 to 100
C/C(=C\C(c1cc(Cl)cc(Cl)c1)C(F)(F)F)c1ccc(-n2cncn2)cc1 (stereo not drawn) [DC68, (E)-1-(4-(4-(3,5-dichlorophenyl)-5,5,5-trifluoropent-2-en-2-yl)phenyl)-1H-1,2,4-triazole] |  | 50 to 100 | 50 to 100
OC(/C=C/c1ccc(-n2cncn2)cc1)(c1cc(Cl)cc(Cl)c1)C(F)(F)F (stereo not drawn) [DC69, (E)-4-(4-(1H-1,2,4-triazol-1-yl)phenyl)-2-(3,5-dichlorophenyl)-1,1,1-trifluorobut-3-en-2-ol] |  | 0 | 0
COC(/C=C/c1ccc(-n2cncn2)cc1)(c1cc(Cl)cc(Cl)c1)C(F)(F)F (stereo not drawn) [DC70, (E)-1-(4-(3-(3,5-dichlorophenyl)-4,4,4-trifluoro-3-methoxybut-1-en-1-yl)phenyl)-1H-1,2,4-triazole] |  | 50 to 100 | 50 to 100
